Patent US20220110924A1, “METHODS AND COMPOSITIONS FOR GENETIC MODULATION OF TUMOR MICROENVIRONMENTS” (HUYABIO International, LLC, priority 2020, published 2022)

Legend:
RR/PTCL = RR/PTCL historical benchmark, cited from earlier work
[1] = tolerability, treatment related adverse events (Example 4); assay type: in vivo, human
Method: The tolerability of the compounds of formula I, nivolumab, and a combination of the compounds of formula I and nivolumab were tested. The Phase 2 clinical dosage of 30 mg BIW of the compounds of formula I was administered.

RR/ATL = settings: cited from earlier work; for ORR: RR/ATL historical benchmark
MC38 tumors [2] = assay: NanoString nCounter PanCancer Immune Profiling Panel gene expression; assay type: in vivo, C57BL/6 mice
Method: Gene expression studies were carried out using excised MC38 tumors (n=20 animals/treatment) isolated from syngeneic C57BL/6 mice treated for 7, 14, or 17 days with HBI-8000 (50 mg/kg, daily), anti-PD-1 (10 mg/kg, biweekly), or the combination of HBI-8000+anti-PD-1 (50 mg/kg, daily, 10 mg/kg, biweekly). At study termination, tumor samples from the treated mice were collected and fixed in formalin for 24 h and transferred to EtOH, followed by the preparation of formalin-fixed paraffin embedded blocks. Tumor sections (5-10 μm) were prepared from the formalin-fixed paraffin-embedded blocks, and total RNA was isolated from tissue scraped from 4 to 6 slides using the protocol recommended by NanoString Technologies (Seattle, Wash.). The nCounter PanCancer Immune Profiling panel developed and provided by NanoString Technologies was initially selected for expression analyses with an additional 20 genes added as a Panel Plus Codeset. The additional genes were predicted to be regulated by HBI-8000+/−ICI treatment. The nCounter assays were performed according to the manufacturer's instructions using the nCounter FLEX system.
Gene expression data were analyzed using nSolver software provided by NanoString Technologies, Inc. Raw data were normalized to the geometric mean values of the internal synthetic positive controls and geometric means of the housekeeping genes, as recommended by the manufacturer. The NanoString Technologies' nSolver Analysis Software 4.0 generated cell type scores, pathway scores, heatmaps, and individual gene normalized data from the nCounter PanCancer Immune Profiling Panel Plus dataset. The cell type score quantifies cell populations using marker genes for given cell types; by centering the mean at 0 for each cell type, immune cell type abundance can be compared on the same scale. The same method was used to generate immune-relevant pathway scores; summarizing the data from multiple genes in a pathway into a single score allowed for comparison between treatments for pathway analysis.
Normalized gene expression data for individual genes was exported from nSolver, annotated with percent of tumor growth inhibition (% TGI), and then imported into GraphPad Prism 7.04.
To investigate the mechanism of action of HBI-8000 in combination therapy with ICIs, larger groups of mice (n=20/group) were implanted with MC38 tumors to sufficiently power the statistical analysis. A baseline no-treatment tumor-bearing group was killed 1 day before initiating treatment. Mice in each treatment arm (n=20) were killed at days 7, 14, and 17 post treatment initiation. The NanoString nCounter PanCancer Immune Profiling Panel analysis allows for clustering of immune response-related genes into “gene sets” comprising a collection of genes selected as being representative of an element of the immune response (i.e., cell type, pathway), and provides a high level view of the antitumor response, which is depicted as scatterplots in FIG. 9A. While all the scores were elevated in the PD-1 Ab plus HBI-8000 combination agent cohorts, it is noteworthy that a subset of cell type scores was augmented by either PD-1 Ab or HBI-8000 alone as early as day 7.

MC38 tumors [3] = assay: model of PD-1 antibody failure or stable disease, second-line therapy; assay type: in vivo; settings: second-line therapy in mice failing PD-1 Ab therapy, n=10/group, end of study
Method: To establish a model of PD-1 antibody failure or stable disease, 150 mice were initially treated biweekly for 3 weeks with first-line anti-PD-1 Ab (5 mg/kg, intraperitoneal administration).
Human cancer patients receiving ICI therapy often experience a transient response or stable disease, but eventually develop resistance and progress, a challenge to which major efforts are directed. […] To explore the effect of HBI-8000 plus ICI on acquired resistance, we developed a model based on the repeated observations that tumor-bearing mice treated initially (first-line) with single agent PD-1 Ab or PD-L1 Ab display […] patterns of growth: approximately 20% experience rapid progression, approximately 20% experience complete regression, and approximately 60% experience stable tumor growth (defined as 3 consecutive tumor volume measurements with no significant change) or slow progression (relative to rapid growth and progression), which somewhat approximates the clinical situation. Using the above model, we treated a large cohort of tumor-bearing mice with PD-1 Ab alone. Once they reached the criteria for stable disease or slow progression, they were randomized into 6 treatment arms as indicated in FIG. 13. We compared the effect of halting treatment (Vehicle), continuing to treat with PD-1 Ab, or continuing PD-1 Ab in combination with HBI-8000. […]

Nc1cc(F)ccc1NC(=O)c1ccc(CNC(=O)/C=C/c2cccnc2)cc1 [Epidaza (China)]
ORR (PMS) (RR/PTCL; value in brackets (PMS)): 35%
ORR (RR/PTCL): 28%

C#CCC(Cc1cnc2nc(N)nc(N)c2n1)c1ccc(C(=O)N[C@@H](CCC(=O)O)C(=O)O)cc1 (some centres unmarked) [Pralatrexate]
ORR (RR/PTCL): 45%

NIVO: fully human monoclonal antibody directed against PD-1
Anemia, TRAE ([1]; G1-2): 0 n (% of N)
Diarrhea, TRAE ([1]; G1-2): 4 (6) n (% of N)
Fatigue, TRAE ([1]; G1-2): 0 n (% of N)
Hypophospatemia, TRAE ([1]; G1-2): 0 n (% of N)
Lymphocyte decrease, TRAE ([1]; G1-2): 0 n (% of N)
Neutrophil decrease, TRAE ([1]; G1-2): 0 n (% of N)
Platelet decrease, TRAE ([1]; G1-2): 0 n (% of N)
WBC decrease, TRAE ([1]; G1-2): 0 n (% of N)
Anemia, TRAE ([1]; G3): 0 n (% of N)
Diarrhea, TRAE ([1]; G3): 1 (2) n (% of N)
Fatigue, TRAE ([1]; G3): 0 n (% of N)
Hypophospatemia, TRAE ([1]; G3): 0 n (% of N)
Lymphocyte decrease, TRAE ([1]; G3): 0 n (% of N)
Neutrophil decrease, TRAE ([1]; G3): 0 n (% of N)
Platelet decrease, TRAE ([1]; G3): 0 n (% of N)
WBC decrease, TRAE ([1]; G3): 0 n (% of N)
Anemia, TRAE ([1]; G4): 0 n (% of N)
Diarrhea, TRAE ([1]; G4): 0 n (% of N)
Fatigue, TRAE ([1]; G4): 0 n (% of N)
Hypophospatemia, TRAE ([1]; G4): 0 n (% of N)
Lymphocyte decrease, TRAE ([1]; G4): 0 n (% of N)
Neutrophil decrease, TRAE ([1]; G4): 0 n (% of N)
Platelet decrease, TRAE ([1]; G4): 0 n (% of N)
WBC decrease, TRAE ([1]; G4): 0 n (% of N)
TSH increase, TRAE ([1]; less frequent TRAEs): 5 n
amylase increase, TRAE ([1]; less frequent TRAEs): 4 n
lipase increase, TRAE ([1]; less frequent TRAEs): 6 n
rash, TRAE ([1]; less frequent TRAEs): 10 n

Nc1cccc2c1CN(C1CCC(=O)NC1=O)C2=O (centres unmarked) [Lenalidomide]
ORR (RR/ATL): 42%
ORR in moga patients (RR/ATL; RR/ATL patients who had received mogamulizumab): 18%

O=c1[nH]cnc2c([C@@H]3N[C@H](CO)[C@@H](O)[C@H]3O)c[nH]c12 [Forodesine]
ORR (RR/PTCL): 22%

Nc1cc(F)ccc1NC(=O)c1ccc(CNC(=O)/C=C/c2cccnc2)cc1 [HBI-8000, N-(2-amino-4-fluorophenyl)-4-[[[(2E)-1-oxo-3-(3-pyridinyl)-2-propen-1-yl]amino]methyl]benzamide]
cell type scores corresponding to dendritic cells, macrophages, NK cells, cytotoxic cells, and CD45 cells (MC38 tumors [2]; as early as day 7): augmented
directed global significance score, Adaptive (MC38 tumors [2]; day 17, vs. Control): 2
directed global significance score, Adhesion (MC38 tumors [2]; day 17, vs. Control): 2
directed global significance score, Antigen processing (MC38 tumors [2]; day 17, vs. Control): 1.8
directed global significance score, Apoptosis (MC38 tumors [2]; day 17, vs. Control): 1.8
directed global significance score, B cell Functions (MC38 tumors [2]; day 17, vs. Control): 1.5
directed global significance score, Basic Cell Function (MC38 tumors [2]; day 17, vs. Control): 1.5
directed global significance score, CD molecules (MC38 tumors [2]; day 17, vs. Control): 1.7
directed global significance score, Cancer progression (MC38 tumors [2]; day 17, vs. Control): 1.8
directed global significance score, Cell cycle (MC38 tumors [2]; day 17, vs. Control): 1.5
directed global significance score, Chemokine and Receptors (MC38 tumors [2]; day 17, vs. Control): 1.5
directed global significance score, Class I MHC mediated antigen process (MC38 tumors [2]; day 17, vs. Control): 1.5
directed global significance score, Complement pathway (MC38 tumors [2]; day 17, vs. Control): 0
directed global significance score, Costimulation by the CD28 family (MC38 tumors [2]; day 17, vs. Control): 1
directed global significance score, Cytokines and Receptors (MC38 tumors [2]; day 17, vs. Control): 1.8
directed global significance score, Dendritic cell Functions (MC38 tumors [2]; day 17, vs. Control): 1.8
directed global significance score, Humoral (MC38 tumors [2]; day 17, vs. Control): 1.8
directed global significance score, Inflammation (MC38 tumors [2]; day 17, vs. Control): 1.8
directed global significance score, Innate (MC38 tumors [2]; day 17, vs. Control): 1.8
directed global significance score, Interferon (MC38 tumors [2]; day 17, vs. Control): 1.5
directed global significance score, Interleukin (MC38 tumors [2]; day 17, vs. Control): 1.5
directed global significance score, Leukocyte Function (MC38 tumors [2]; day 17, vs. Control): 1.8
directed global significance score, MHC (MC38 tumors [2]; day 17, vs. Control): 1.8
directed global significance score, MHC class II antigen presentation (MC38 tumors [2]; day 17, vs. Control): 1.8
directed global significance score, Macrophage function (MC38 tumors [2]; day 17, vs. Control): 1.8
directed global significance score, Microglial Functions (MC38 tumors [2]; day 17, vs. Control): 3
directed global significance score, NK cell Function (MC38 tumors [2]; day 17, vs. Control): 1.5
directed global significance score, Pathogen Receptors (MC38 tumors [2]; day 17, vs. Control): 1.3
directed global significance score, Senescence (MC38 tumors [2]; day 17, vs. Control): 1.3
directed global significance score, T-cell Functions (MC38 tumors [2]; day 17, vs. Control): 1.5
directed global significance score, TLR (MC38 tumors [2]; day 17, vs. Control): 1.5
directed global significance score, TNF superfamily (MC38 tumors [2]; day 17, vs. Control): 1.5
directed global significance score, Transporter Function (MC38 tumors [2]; day 17, vs. Control): 1.8
complete response (tumor regression) (MC38 tumors [3]): 2 mice
partial response (MC38 tumors [3]): 3 mice
share of TRAEs associated with the agent ([1]; 63 subjects with AE data): 39%
Anemia, TRAE ([1]; G1-2): 14 (22) n (% of N)
Diarrhea, TRAE ([1]; G1-2): 0 n (% of N)
Fatigue, TRAE ([1]; G1-2): 0 n (% of N)
Hypophospatemia, TRAE ([1]; G1-2): 6 (10) n (% of N)
Lymphocyte decrease, TRAE ([1]; G1-2): 0 n (% of N)
Neutrophil decrease, TRAE ([1]; G1-2): 8 (13) n (% of N)
Platelet decrease, TRAE ([1]; G1-2): 23 (37) n (% of N)
WBC decrease, TRAE ([1]; G1-2): 11 (17) n (% of N)
Anemia, TRAE ([1]; G3): 1 (2) n (% of N)
Diarrhea, TRAE ([1]; G3): 0 n (% of N)
Fatigue, TRAE ([1]; G3): 0 n (% of N)
Hypophospatemia, TRAE ([1]; G3): 4 (6) n (% of N)
Lymphocyte decrease, TRAE ([1]; G3): 0 n (% of N)
Neutrophil decrease, TRAE ([1]; G3): 5 (8) n (% of N)
Platelet decrease, TRAE ([1]; G3): 3 (5) n (% of N)
WBC decrease, TRAE ([1]; G3): 1 (2) n (% of N)
Anemia, TRAE ([1]; G4): 0 n (% of N)
Diarrhea, TRAE ([1]; G4): 0 n (% of N)
Fatigue, TRAE ([1]; G4): 0 n (% of N)
Hypophospatemia, TRAE ([1]; G4): 0 n (% of N)
Lymphocyte decrease, TRAE ([1]; G4): 0 n (% of N)
Neutrophil decrease, TRAE ([1]; G4): 1 (2) n (% of N)
Platelet decrease, TRAE ([1]; G4): 0 n (% of N)
WBC decrease, TRAE ([1]; G4): 0 n (% of N)

B1: Mogamulizumab: RR/ATL treatment listed as historical benchmark (antibody, chains of the INN, looked up, V domains shown)
VH: EVQLVESGGDLVQPGRSLRLSCAASGFIFSNYGMSWVRQAPGKGLEWVATISSASTYSYYPDSVKGRFTISRDNAKNSLYLQMNSLRVEDTALYYCGRHSDGNFAFGYWGQGTLVTVSS
VL: DVLMTQSPLSLPVTPGEPASISCRSSRNIVHINGDTYLEWYLQKPGQSPQLLIYKVSNRFSGVPDRFSGSGSGTDFTLKISRVEAEDVGVYYCFQGSLLPWTFGQGTKVEIK
ORR (RR/ATL): 50%
